The text below walks through data of PMC12564223, “UHPLC-QTOF-ESI-MS/MS, SNAP-MS Identification, In Silico Prediction of Pharmacokinetic Properties of Constituents from the Stem Bark of Holarrhena floribunda (G. Don) T. Durand and Schinz (Apocynaceae)” (Biomolecules, 2025).

Like-named read-outs stand apart in the source and are kept apart here. Bounds are passed on as bounds.

The test system of data set [1] is Plasmodium falciparum K1 (multi-resistant). Set-up: method as in PMID 29172699. The following applies: Pf K1; ref [18]; cited from earlier work.
Data set [2] concerns P. falciparum 3D7 (Chloroquine-sensitive). Put plainly: Plasmodium falciparum growth inhibition assay (SYBR green I), 3D7 strain. It counts as cell-based. The following applies: read-out: IC50/Pf3D7.
Data set [3] has as its system P. falciparum Dd2 (multidrug-resistant). Put plainly: Plasmodium falciparum growth inhibition assay (SYBR green I), Dd2 strain. The format is cell-based. The note with it: for IC50: Plasmodium falciparum, read-out: IC50/PfDd2.
The subject of data set [4] is Plasmodium falciparum FCB1 (chloroquine-resistant). Set-up: method as in PMID 15863333. The note with it: Pf FCB1; ref [17]; cited from earlier work.
For data set [5], the system named is human cervix carcinoma KB-3-1 cancer cell lines.
For data set [6] the test system is unchanged. Put plainly: Cytotoxicity on KB-3-1 cells. The note with it: called IC50 in the text.
[7] abbreviates: 3D7, compounds and reference drugs, 72 h incubation.
Setting [8] is: DD2, compounds and reference drugs, 72 h incubation.

`CNC1CCC2(C)C(=CCC3C2CCC2(C)C(C(C)=O)CCC32)C1` (centres unmarked) [compound 16, N-methylholaphyllamine]: the IC50 in data set [1] was 10.6 µM.
Consider `COc1cc(C)c2c(=O)c3c(O)cc(OC)cc3oc2c1` [compound 27, lichexanthone], for which the IC50 came to 33.4 ± 1.2 µM in data set [2] (3D7, 72 h) and 36.5 ± 1.39 µM in data set [3] (DD2, 72 h). In addition, the “RI: [IC50PfDd2/IC50Pf3D7]” value in data set [3] (Resistance Index) came to 1.09.
Take `CC1N=CC23CCC4C(CC=C5CC(N)CCC54C)C2CCC13` (centres unmarked) [compound 3, Irheline]: the IC50 in data set [2] (setting [7]) is over 50 µM; in data set [3] (setting [8]) it was over 50 µM; in data set [1] it was 1.2 µM.
In the case of `CNC1CCC2(C)C(=CCC3C2CCC24CNC(C)C2CCC34)C1` (centres unmarked) [compound 4, Conimin/conamine], in data set [1], the IC50 was 8 µM.
For `CCN(CC)CCCC(C)Nc1ccnc2cc(Cl)ccc12` (centres unmarked) [Chloroquine, reference compound], the IC50 was determined as 0.045 ± 0.003 µM in data set [2] (3D7, 72 h) and 0.73 ± 0.09 µM in data set [3] (DD2, 72 h). Besides, the “RI: [IC50PfDd2/IC50Pf3D7]” value in data set [3] stood at 16.22.
For the compound `CNC1CCC2(C)C(=CCC3C2CC(OC(=O)CC=C(C)C)C24CN(C)C(C)C2CCC34)C1` (centres unmarked) [compound 11, Holarrhesine], the IC50 in data set [4] was 0.97 ± 0.11 µM.
Regarding `C[C@H]1[C@H]2CC[C@H]3[C@@H]4CC=C5C[C@@H](N(C)C)CC[C@]5(C)[C@H]4CC[C@]23CN1C` [compound 5, Conessine], the IC50 in data set [2] (3D7, 72 h) is 26 ± 0.43 µM; in data set [3] (DD2, 72 h) it was 28.5 ± 0.704 µM; in data set [4] it was 1.04 µM. Moreover, in data set [3] (Resistance Index), the “RI: [IC50PfDd2/IC50Pf3D7]” value is on record as 1.09.
`CC(O)C1CCC2C3CC=C4CC(N)CCC4(C)C3CCC12C` (centres unmarked) [compound 15, Holaphyllaminol]: in data set [1], the IC50 is 11.7 µM.
On to `CCOC(=O)c1c(C)cc(O)cc1O` [compound 26, ethylorsalinate], for which the IC50 in data set [2] (setting [7]) and in data set [3] (setting [8]) was over 50 µM in each case.
Regarding `C[C@@H]1CC[C@H]2[C@@H](C)C(=O)O[C@@H]3O[C@@]4(C)CC[C@@H]1[C@]32OO4` [Artemisinin, reference compound], the IC50 was 0.035 µM in data set [2] (setting [7]) and 0.025 ± 0.006 µM in data set [3] (setting [8]). Besides, the “RI: [IC50PfDd2/IC50Pf3D7]” value in data set [3] (Resistance Index) came out at 0.71.
With `CC(=O)C1CCC2C3CC=C4CC(N)CCC4(C)C3CCC12C` (centres unmarked) [compound 14, Holaphyllamine], the IC50 in data set [2] (3D7, 72 h) was found to be 49.5 ± 4.83 µM; in data set [3] (DD2, 72 h), 55.8 ± 9.75 µM. Besides, in data set [3] (Resistance Index), the “RI: [IC50PfDd2/IC50Pf3D7]” value is 1.12. For the same compound, the “CC50 on KB-3-1” value in data set [5] is reported as 9.8 µM.
Regarding `CC(C)=CCC(=O)O[C@@H]1C[C@H]2[C@@H](CC=C3C[C@@H](N(C)C)CC[C@@]32C)[C@@H]2CC[C@@H]3[C@H](C)N(C)C[C@]312` [compound 10, Holarrhetine], in data set [4], the IC50 was 1.13 ± 0.32 µM.
For the compound Cryptophycin, the “CC50 on KB-3-1” value in data set [6] was 1.3 × 10^−5 μM µM; in data set [6] (listed as cryptophycin), 1.3e-05 µM.
